The IC50 is the point on the concentration scale where inhibition reaches its midpoint.

Drawing on patent US20260200897A1, “4-((5-(3-(4-(PYRIDIN-2-YL)CYCLOPENTYL)-1H-PYRAZOL-3-YL)AMINO)-BENZENESULFONAMIDE DERIVATIVES AND SIMILAR COMPOUNDS AS CDK INHIBITORS FOR THE TREATMENT OF CANCER” (BeOne Medicines I GmbH, priority 2023, published 2026), this text covers IC50 for 23 molecules.

One test deals with CDK1/Cyclin B1 (Homo sapiens, UniProt P06493). As to the kind of experiment: CDK1/Cyclin B1 TR-FRET biochemical assay, 1 mM ATP. The settings on record: 0.15 μM Rb (Ser780)-biotin substrate, 90 min reaction, Table 2. The protocol:
(§1) Compounds disclosed herein were tested for inhibition of CDK2/Cyclin E1 or CDK1/Cyclin B kinase in an assay based on the time-resolved fluorescence-resonance energy transfer (TR-FRET) methodology. The assay was carried out in 384-well low volume black plates in a reaction mixture containing CDK2/Cyclin E1 or CDK1/Cyclin B1, 1 mM ATP for CDK2/Cyclin E1 and CDK1/Cyclin B1, 0.15 μM Rb (Ser780)-biotin substrate and 0-10 μM compound in buffer containing 50 mM HEPES pH7.0, 0.02% NaN3, 0.01% BSA, 0.1 mM Orthovanadate, 50 mM MgCl2, 1 mM DTT and 0.005% Tween-20. The kinase was incubated with compound for 60 minutes at room temperature and the reaction was initiated by the addition of ATP and Rb (Ser780)-biotin substrate. After reaction at room temperature for 90 minutes, an equal volume of stop/detection solution was added according to the manufacture's instruction (Cisbio Bioassays). The stop/detection solution contained Streptavidin-XL665 and Anti-pRb (Ser780) mAb-Eu Cryptate in Detection buffer (Cisbio Bioassays). Plates were incubated at room temperature for 60 minutes, and the TR-FRET signals (ex337 nm, em665 nm/620 nm) were recorded on a PHERAstar FSX plate reader (BMG Labtech). The inhibition percentage of CDK2/Cyclin E1 or CDK1/Cyclin B1 kinase activity in presence of increasing concentrations of compounds was calculated based on the ratio of fluorescence at 665 nm to that at 620 nm. The IC50 for each compound was derived from fitting the data to the four-parameter logistic equation by Dotmatics.
(In general: Time-resolved FRET reads energy transfer from a long-lived donor to a nearby acceptor.)

Another test addresses CDK2/Cyclin E1 (Homo sapiens, UniProt P24941). The test can be described thus: CDK2/Cyclin E1 TR-FRET biochemical assay, 1 mM ATP. The conditions noted are these: 0.15 μM Rb (Ser780)-biotin substrate, 90 min reaction, Table 2. The protocol:
as §1

CDK1/Cyclin B1, sequence (P06493 whole entry): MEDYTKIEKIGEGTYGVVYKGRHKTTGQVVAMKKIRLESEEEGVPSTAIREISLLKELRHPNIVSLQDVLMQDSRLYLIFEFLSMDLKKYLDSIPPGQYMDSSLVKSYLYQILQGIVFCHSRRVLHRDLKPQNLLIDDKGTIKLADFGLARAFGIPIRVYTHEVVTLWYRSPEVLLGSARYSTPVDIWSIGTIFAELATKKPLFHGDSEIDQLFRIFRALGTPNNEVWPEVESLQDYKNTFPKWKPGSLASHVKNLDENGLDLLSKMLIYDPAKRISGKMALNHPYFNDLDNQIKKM
CDK1/Cyclin B1, sequence (P14635 whole entry partner): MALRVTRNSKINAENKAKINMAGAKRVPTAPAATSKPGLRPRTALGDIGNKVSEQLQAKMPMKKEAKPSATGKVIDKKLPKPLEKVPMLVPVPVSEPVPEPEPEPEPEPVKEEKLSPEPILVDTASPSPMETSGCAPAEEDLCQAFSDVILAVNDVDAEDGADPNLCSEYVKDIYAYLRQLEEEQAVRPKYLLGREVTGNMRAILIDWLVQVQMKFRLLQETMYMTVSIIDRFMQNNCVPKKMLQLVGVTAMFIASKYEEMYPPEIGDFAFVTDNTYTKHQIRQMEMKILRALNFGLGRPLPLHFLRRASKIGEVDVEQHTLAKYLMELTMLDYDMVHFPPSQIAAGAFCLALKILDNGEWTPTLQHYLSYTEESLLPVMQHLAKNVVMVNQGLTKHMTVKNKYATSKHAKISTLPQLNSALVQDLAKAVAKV

`CC(C)(C)c1cnnc(C2CCC(c3cc(Nc4ccc5c(c4F)CS(=O)(=O)N5)n[nH]3)C2)c1` (stereo not shown) [Example 163, 5-((5-(3-(5-(tert-butyl)pyridazin-3-yl)cyclopentyl)-1H-pyrazol-3-yl)amino)-4-fluoro-1,3-dihydrobenzo[c]isothiazole 2,2-dioxide]: the half-inhibitory concentration (IC50) on CDK1/Cyclin B1 turned out to be 2.02 µM; on CDK2/Cyclin E1 it was 0.016 µM.
With `CC(C)(C)c1ccnnc1O[C@H]1CC[C@H](c2cc(Nc3ccc4c(c3F)CNS4(=O)=O)n[nH]2)C1` (relative stereo) [Example 36, trans-5-((5-(3-((4-(tert-butyl)pyridazin-3-yl)oxy)cyclopentyl)-1H-pyrazol-3-yl)amino)-4-fluoro-2,3-dihydrobenzo[d]isothiazole 1,1-dioxide], the IC50 against CDK1/Cyclin B1 and against CDK2/Cyclin E1 was above 10 µM throughout.
As to `Cc1cc(C(C)(C)C)cc(C2CCC(c3cc(Nc4ccc5c(c4F)CNS5(=O)=O)n[nH]3)C2)n1` (stereo not shown) [Example 123, 5-((5-(3-(4-(tert-butyl)-6-methylpyridin-2-yl)cyclopentyl)-1H-pyrazol-3-yl)amino)-4-fluoro-2,3-dihydrobenzo[d]isothiazole 1,1-dioxide], the IC50 at CDK1/Cyclin B1 was above 10 µM; against CDK2/Cyclin E1, 1.74 µM.
With `CC(C)c1cnc(C2CCC(c3cc(Nc4ccc5c(c4F)CNS5(=O)=O)n[nH]3)C2)o1` (single isomer, unassigned) [Example 109a, 4-fluoro-5-((5-(3-(5-isopropyloxazol-2-yl)cyclopentyl)-1H-pyrazol-3-yl)amino)-2,3-dihydrobenzo[d]isothiazole 1,1-dioxide], the IC50 came out at 2.87 µM against CDK1/Cyclin B1 and 0.0086 µM on CDK2/Cyclin E1.
In the same order, the values of `CN1c2ccc(Nc3cc([C@H]4CC[C@@H](c5ncc(C(C)(C)C)o5)C4)[nH]n3)cc2CS1(=O)=O` [Example 141, 5-((5-((1S,3R)-3-(5-(tert-butyl)oxazol-2-yl)cyclopentyl)-1H-pyrazol-3-yl)amino)-1-methyl-1,3-dihydrobenzo[c]isothiazole 2,2-dioxide] are 0.135 µM and 0.0006 µM.
In the same order, the values of `CC(C)(O)c1cnc(C2CCC(c3cc(Nc4ccc5c(c4F)CS(=O)(=O)C5)n[nH]3)C2)o1` (stereo not shown) [Example 179, 4-fluoro-5-((5-(3-(5-(2-hydroxypropan-2-yl)oxazol-2-yl)cyclopentyl)-1H-pyrazol-3-yl)amino)-1,3-dihydrobenzo[c]thiophene 2,2-dioxide] are 0.537 µM and 0.0015 µM.
In the same order, the values of `CC(C)(C)c1cnc(C2CCC(c3cc(Nc4ccc5c(c4)CN=S5(C)=O)n[nH]3)C2)o1` (single isomer, unassigned) [Example 169c, 5-((5-(3-(5-(tert-butyl)oxazol-2-yl)cyclopentyl)-1H-pyrazol-3-yl)amino)-1-methyl-3H-1λ^4-benzo[d]isothiazole 1-oxide] are 6.71 µM and 0.057 µM.
On to `CC(C)(C)c1cnc(C2CCC(c3cc(Nc4ccc5c(c4F)CNS5(=O)=O)n[nH]3)C2)[nH]1` (stereo not shown) [Example 103, 5-((5-(3-(5-(tert-butyl)-1H-imidazol-2-yl)cyclopentyl)-1H-pyrazol-3-yl)amino)-4-fluoro-2,3-dihydrobenzo[d]isothiazole 1,1-dioxide], for which the concentration for half-maximal inhibition (IC50) on CDK1/Cyclin B1 and against CDK2/Cyclin E1 was above 10 µM in each case.
Turning to `CC(C)(C)c1cc(C2CCC(c3cc(Nc4ccc5c(c4F)CNS5(=O)=O)n[nH]3)C2)[nH]n1` (stereo not shown) [Example 100, 5-((5-(3-(3-(tert-butyl)-1H-pyrazol-5-yl)cyclopentyl)-1H-pyrazol-3-yl)amino)-4-fluoro-2,3-dihydrobenzo[d]isothiazole 1,1-dioxide], the half-inhibitory concentration (IC50) was above 10 µM against CDK1/Cyclin B1 and 0.173 µM on CDK2/Cyclin E1.
In the same order, the values of `CC(C)(C)c1ccnc(C2CCC(c3cc(Nc4ccc5c(c4F)CNS5(=O)=O)[nH]n3)C2)c1` (stereo not shown) [Example 117, 5-((3-(3-(4-(tert-butyl)pyridin-2-yl)cyclopentyl)-1H-pyrazol-5-yl)amino)-4-fluoro-2,3-dihydrobenzo[d]isothiazole 1,1-dioxide] are 6.77 µM and 0.034 µM.
In the same order, the values of `CC(C)(C)c1ccnnc1O[C@@H]1CC[C@H](c2cc(Nc3ccc4c(c3F)CNS4(=O)=O)n[nH]2)C1` (relative stereo) [Example 37, cis-5-((5-(3-((4-(tert-butyl)pyridazin-3-yl)oxy)cyclopentyl)-1H-pyrazol-3-yl)amino)-4-fluoro-2,3-dihydrobenzo[d]isothiazole 1,1-dioxide] are 0.011 µM and 0.0005 µM.
In the same order, the values of `CC(C)(C)c1cnc(C2CCC(c3cc(Nc4ccc(S(N)(=O)=O)cc4F)n[nH]3)C2)o1` (single isomer, unassigned) [Example 6b, 4-((5-(3-(5-(tert-butyl)oxazol-2-yl)cyclopentyl)-1H-pyrazol-3-yl)amino)-3-fluorobenzenesulfonamide] are above 10 µM and 0.088 µM.
As to `CC(C)(C)c1cnc(C2CCC(c3cc(Nc4ccc(S(N)(=O)=O)cc4F)n[nH]3)C2)o1` (single isomer, unassigned) [Example 6c, 4-((5-(3-(5-(tert-butyl)oxazol-2-yl)cyclopentyl)-1H-pyrazol-3-yl)amino)-3-fluorobenzenesulfonamide], the IC50 at CDK1/Cyclin B1 was above 10 µM; against CDK2/Cyclin E1, 1.91 µM.
`CC(C)(C)c1ccc([C@@H]2CC[C@H](c3cc(Nc4ccc5c(c4F)CNS5(=O)=O)n[nH]3)C2)o1` (relative stereo) [Example 107, cis-5-((5-(3-(5-(tert-butyl)furan-2-yl)cyclopentyl)-1H-pyrazol-3-yl)amino)-4-fluoro-2,3-dihydrobenzo[d]isothiazole 1,1-dioxide]: the 50% inhibitory concentration (IC50) at CDK1/Cyclin B1 was above 10 µM; at CDK2/Cyclin E1 it was 2.44 µM.
With `CC(C)(C)c1ccnc(C2CCC(c3cc(Nc4ccc(S(N)(=O)=O)cc4F)n[nH]3)C2)c1` (stereo not shown) [Example 1, 4-((5-(3-(4-(tert-butyl)pyridin-2-yl)cyclopentyl)-1H-pyrazol-3-yl)amino)-3-fluorobenzenesulfonamide], the results for the IC50 against CDK1/Cyclin B1 and at CDK2/Cyclin E1 were above 10 µM and 0.1 µM, respectively.
In the case of `CC(C)c1cnc(C2CCC(c3cc(Nc4ccc5c(c4F)CS(=O)(=O)N5)n[nH]3)C2)o1` (single isomer, unassigned) [Example 152b, cis-4-fluoro-5-((5-(3-(5-isopropyloxazol-2-yl)cyclopentyl)-1H-pyrazol-3-yl)amino)-1,3-dihydrobenzo[c]isothiazole 2,2-dioxide], the figures for the half-maximal inhibitory concentration (IC50) against CDK1/Cyclin B1 and against CDK2/Cyclin E1 were 4.58 µM and 0.019 µM, respectively.
In the same order, the values of `CC(C)(C)c1cnc(C2CCC(c3cc(Nc4ccc5c(c4F)CCS(=O)(=O)N5)n[nH]3)C2)o1` (stereo not shown) [Example 166, 6-((5-(3-(5-(tert-butyl)oxazol-2-yl)cyclopentyl)-1H-pyrazol-3-yl)amino)-5-fluoro-3,4-dihydro-1H-benzo[c][1,2]thiazine 2,2-dioxide] are 0.202 µM and 0.0009 µM.
In the same order, the values of `CC(C)c1ccnc(C2CCC(c3cc(Nc4ccc5c(c4F)CS(=O)(=O)C5)n[nH]3)C2)c1` (stereo not shown) [Example 178, 4-fluoro-5-((5-(3-(4-isopropylpyridin-2-yl)cyclopentyl)-1H-pyrazol-3-yl)amino)-1,3-dihydrobenzo[c]thiophene 2,2-dioxide] are 1.52 µM and 0.007 µM.
In the same order, the values of `CC(C)c1cnc(C2CCC(c3cc(Nc4ccc(S(N)(=O)=O)cc4F)n[nH]3)C2)o1` (stereo not shown) [Example 7, 3-fluoro-4-((5-(3-(5-isopropyloxazol-2-yl)cyclopentyl)-1H-pyrazol-3-yl)amino)benzenesulfonamide] are above 10 µM and 0.093 µM.
With `CC(C)(C)c1cn([C@@H]2CC[C@H](c3cc(Nc4ccc5c(c4F)CNS5(=O)=O)n[nH]3)C2)cn1` (relative stereo) [Example 88, cis-5-((5-(3-(4-(tert-butyl)-1H-imidazol-1-yl)cyclopentyl)-1H-pyrazol-3-yl)amino)-4-fluoro-2,3-dihydrobenzo[d]isothiazole 1,1-dioxide], the half-maximal inhibitory concentration (IC50) on CDK1/Cyclin B1 and against CDK2/Cyclin E1 was above 10 µM in each case.
As to `Cc1nc(C2CCC(c3cc(Nc4ccc(S(N)(=O)=O)cc4F)n[nH]3)C2)oc1C(C)(C)C` (stereo not shown) [Example 8, 4-((5-(3-(5-(tert-butyl)-4-methyloxazol-2-yl)cyclopentyl)-1H-pyrazol-3-yl)amino)-3-fluorobenzenesulfonamide], the half-maximal inhibitory concentration (IC50) against CDK1/Cyclin B1 is above 10 µM; against CDK2/Cyclin E1, 0.079 µM.
Regarding `CC(C)(O)c1cc(C2CCC(c3cc(Nc4ccc5c(c4F)CS(=O)(=O)N5)n[nH]3)C2)n[nH]1` (stereo not shown) [Example 150, 4-fluoro-5-((5-(3-(5-(2-hydroxypropan-2-yl)-1H-pyrazol-3-yl)cyclopentyl)-1H-pyrazol-3-yl)amino)-1,3-dihydrobenzo[c]isothiazole 2,2-dioxide], the results for the half-maximal inhibitory concentration (IC50) against CDK1/Cyclin B1 and on CDK2/Cyclin E1 were above 10 µM and 0.189 µM, respectively.
In the same order, the values of `C=C(C)c1cc(C2CCC(c3cc(Nc4ccc5c(c4F)CS(=O)(=O)N5)n[nH]3)C2)n[nH]1` (stereo not shown) [Example 151, 4-fluoro-5-((5-(3-(5-(prop-1-en-2-yl)-1H-pyrazol-3-yl)cyclopentyl)-1H-pyrazol-3-yl)amino)-1,3-dihydrobenzo[c]isothiazole 2,2-dioxide] are above 10 µM and 1.4 µM.
